Measurements reported in patent US8067456B2 (AEterna Zentaris GmbH, priority 2004, dated 2011).

How the values were obtained:
[1] = system: LHRH-stimulated LH secretion from rat pituitary cells; assay: Inhibition of LHRH-induced LH secretion from rat pituitary cells in vitro; format: cell-based; settings: LHRH 10 nM, 3 hours
Protocol: The LH concentration in cell culture supernatants was measured using the rat luteinizing hormone (rLH) enzyme immunoassay (EIA) system ELISA (RPN 2562) from Amersham Pharmacia Biotech. All other chemicals used were from commercial sources in the highest purity available.
Juvenile male Wistar rats (Harlan Winkelmann, Germany) were sacrificed by decapitation, and the pituitaries were removed and taken up in Hanks' buffer (HBSS) with 0.3% BSA and 10 mM HEPES (pH 7.4). Pituitaries from 20 rats were required to carry out one experiment. The cells of the anterior lobe of the pituitary were separated from the remaining tissue by incubation in Hanks' buffer with 10 mM HEPES (pH 7.4), 0.3% BSA, 1 mg/ml hyaluronidase (type VIII), 1 mg/ml soybean trypsin inhibitor, 10 μg/ml DNAsel and 1 mg/ml papain at 37° C. for 30 minutes A sterile Pasteur pipette was used to disperse the cells, and they were subsequently pelleted by centrifugation. The cells were seeded in a density of 2.5×10^5 cells/well of a collagen-coated 48-well plate (Becton Dickinson) in DMEM medium (Invitrogen Life Technologies, Germany) with 10% fetal calf serum (FCS; Invitrogen Life Technologies, Germany), 10 mill nonessential amino acids and 10 mill Pen/Strep (penicillin/streptomycin).
The medium was changed after incubation at 37° C., 5% CO2 and 95% humidity for 48 h. The medium was replaced by LHRH-containing (10 nM) medium or medium with LHRH (10 nM) and test substance in the concentration indicated (table). After a further incubation for 3 hours, the cell supernatant was harvested and frozen at −20° C. The LH content was determined by means of ELISA in triplicate determination in accordance with the manufacturer's (Amersham Pharmacia Biotech) instructions.
In the following table, “% Inhibition” describes the quotient of LHRH-stimulated LH secretion with (“LH (ng/ml)” and without the addition of the test substance. The values originate from different, independent experiments.

[2] = Metabolic stability in human liver microsomes; format: in vitro ADME; settings: 1 μM, 37° C., NADPH
Protocol: The metabolic stability in relation to liver microsomes (species human, rat) was determined in accordance with the following description: the substances were incubated at a test concentration of 1 […] An HPLC MS/MS method was subsequently used to quantify the unmetabolized amount of starting compound relative to 100%.

For `CCC(C)[C@H](NC(=O)OCc1ccccc1)C(=O)N[C@]1(C(=O)N[C@H](C(N)=S)C(C)CC)CCc2[nH]c3c(Cl)cc(Cl)cc3c2C1` (stereo partly drawn) [Compound 7, benzyl {(S)-1-[(R)-6,8-dichloro-3-((S)-2-methyl-1-thiocarbamoylbutylcarbamoyl)-2,3,4,9-tetrahydro-1H-carbazol-3-ylcarbamoyl]-2-methylbutyl}carbamate], the inhibition at 0.033 µM ([1]; Rattus norvegicus, test substance 3.3 × 10^−8 M, read-out: % Inhibition) was 83%, the inhibition at 0.0033 µM ([1]; Rattus norvegicus, test substance 3.3 × 10^−9 M) was 43% and the “LH (ng/ml) ± SD” value ([1]; test substance 3.3 × 10^−8 M) was 79.9 ± 15.0 ng/mL. The “LH (ng/ml) ± SD” value ([1]; test substance 3.3 × 10^−9 M) was 194.0 ± 13.2 ng/mL and the recovery at 1 μM [2] was 65%.
